Measurements published in the supplement of paper PMC8149375.

Tests used:
Conditions in all cases: treatment: drug + dasatinib (fixed dose, not stated); 5 days
ACHN [1] = experiment: minimum viability across doses, drug + dasatinib, relative to DMSO (fraction); higher = less growth inhibition
Method: (§1)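 Primary HTS combination arm: 8 RCC cell lines treated with 8 doses (up to 10 uM) of each library drug plus a fixed dose of dasatinib (dose not stated) for 5 days; viability read by CellTiter-Glo and normalised to DMSO. GI50 was fitted with XLfit, AUC is the area under the dose-response curve, and minimum viability is the lowest fraction of DMSO viability across doses.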

CAKI-1 [2] = experiment: as above
Method: as §1

UO-31 [3] = experiment: as above
Method: as §1

769-P [4] = experiment: as above
Method: as §1

786-O [5] = experiment: as above
Method: as §1

A498 [6] = experiment: as above
Method: as §1

SN12C [7] = experiment: as above
Method: as §1

TK-10 [8] = experiment: as above
Method: as §1

ACHN [9] = experiment: GI50 of drug in presence of dasatinib; higher = less potent
Method: as §1

CAKI-1 [10] = experiment: as above
Method: as §1

UO-31 [11] = experiment: as above
Method: as §1

769-P [12] = experiment: as above
Method: as §1

A498 [13] = experiment: as above
Method: as §1

SN12C [14] = experiment: as above
Method: as §1

TK-10 [15] = experiment: as above
Method: as §1

ACHN [16] = experiment: AUC of dose-response viability curve, drug + dasatinib, normalised to DMSO (arbitrary (AUC of normalised viability)); higher = less growth inhibition
Method: as §1

CAKI-1 [17] = experiment: as above
Method: as §1

UO-31 [18] = experiment: as above
Method: as §1

769-P [19] = experiment: as above
Method: as §1

786-O [20] = experiment: as above
Method: as §1

A498 [21] = experiment: as above
Method: as §1

SN12C [22] = experiment: as above
Method: as §1

TK-10 [23] = experiment: as above
Method: as §1

786-O [24] = experiment: GI50 of drug in presence of dasatinib; higher = less potent
Method: as §1

Structure (SMILES)	minimum viability across doses (ACHN [1])	minimum viability across doses (CAKI-1 [2])	minimum viability across doses (UO-31 [3])	minimum viability across doses (769-P [4])	minimum viability across doses (786-O [5])	minimum viability across doses (A498 [6])	minimum viability across doses (SN12C [7])	minimum viability across doses (TK-10 [8])	GI50 of drug (ACHN [9]) [nM]	GI50 of drug (CAKI-1 [10]) [nM]	GI50 of drug (UO-31 [11]) [nM]	GI50 of drug (769-P [12]) [nM]	GI50 of drug (A498 [13]) [nM]	GI50 of drug (SN12C [14]) [nM]	GI50 of drug (TK-10 [15]) [nM]	AUC of dose-response viability curve (ACHN [16])	AUC of dose-response viability curve (CAKI-1 [17])	AUC of dose-response viability curve (UO-31 [18])	AUC of dose-response viability curve (769-P [19])	AUC of dose-response viability curve (786-O [20])	AUC of dose-response viability curve (A498 [21])	AUC of dose-response viability curve (SN12C [22])	AUC of dose-response viability curve (TK-10 [23])	GI50 of drug (786-O [24]) [nM]
O=C1NC(=O)/C(=C/c2ccc(-c3ccc(F)cc3O)o2)S1 + Cc1nc(Nc2ncc(C(=O)Nc3c(C)cccc3Cl)s2)cc(N2CCN(CCO)CC2)n1 [dasatinib]	0.567	0.628	1.02	0.532	0.449	1.06	0.651	0.649	> 10000	> 10000	> 10000	> 10000	> 10000	> 10000	> 10000	2.15	2.4	3.97	2.41	2.08	3.96	2.41	2.51	–
Cc1ccc(NC(=O)c2cccc(N(C)C)c2)cc1NC(=O)c1ccc(O)cc1 + Cc1nc(Nc2ncc(C(=O)Nc3c(C)cccc3Cl)s2)cc(N2CCN(CCO)CC2)n1 [dasatinib]	0.54	0.65	1.02	0.639	0.388	0.932	0.69	0.609	> 10000	> 10000	> 10000	> 10000	> 10000	> 10000	> 10000	2.1	2.43	4.5	2.41	2	3.67	2.52	2.37	–
O=C1NC(=O)C(c2ccccc2[N+](=O)[O-])=C1Nc1ccc(O)c(Cl)c1 + Cc1nc(Nc2ncc(C(=O)Nc3c(C)cccc3Cl)s2)cc(N2CCN(CCO)CC2)n1 [dasatinib]	0.506	0.591	0.748	0.629	0.339	0.789	0.67	0.646	> 10000	> 10000	> 10000	> 10000	> 10000	> 10000	> 10000	2.02	2.31	3.6	2.42	1.73	3.1	2.5	2.42	–
Cc1cnc(NC(=O)Nc2cc(Br)c(C)cc2OC[C@@H]2CNCCO2)cn1 + Cc1nc(Nc2ncc(C(=O)Nc3c(C)cccc3Cl)s2)cc(N2CCN(CCO)CC2)n1 [dasatinib]	0.0412	0.0829	0.00521	0.0737	0.00234	0.0633	0.113	0.162	36.9	388	833	–	2120	2090	559	1.21	1.71	3.07	1.71	1.43	2.99	2.27	2.01	172
C=CC(=O)N1CCC[C@@H](n2nc(-c3ccc(Oc4ccccc4)cc3)c3c(N)ncnc32)C1 + Cc1nc(Nc2ncc(C(=O)Nc3c(C)cccc3Cl)s2)cc(N2CCN(CCO)CC2)n1 [dasatinib]	0.295	0.19	0.194	0.124	0.435	0.927	0.496	0.189	81.4	3280	8830	212	> 10000	> 10000	264	1.61	2.18	3.83	1.72	2	4.62	2.28	1.83	–
Cn1cnc2c(F)c(Nc3ccc(Br)cc3Cl)c(C(=O)NOCCO)cc21 [AZD6244 (Selumetinib)] + Cc1nc(Nc2ncc(C(=O)Nc3c(C)cccc3Cl)s2)cc(N2CCN(CCO)CC2)n1 [dasatinib]	0.343	0.129	0.143	0.294	0.507	0.301	0.0911	0.477	83.2	646	–	1200	–	1070	3540	1.64	1.77	2.32	2.1	2.26	2.11	1.84	2.38	1660
CNC(=O)CN1CCC(Oc2cc3c(Nc4cccc(Cl)c4F)ncnc3cc2OC)CC1 [AZD8931] + Cc1nc(Nc2ncc(C(=O)Nc3c(C)cccc3Cl)s2)cc(N2CCN(CCO)CC2)n1 [dasatinib]	0.233	0.332	0.344	0.15	0.262	0.284	0.569	0.277	11.4	2990	4660	135	1040	> 10000	477	1.24	2.11	2.96	1.69	1.88	2.24	2.3	1.99	–
